This note sets out measurements from patent US10774064B2 (Cadent Therapeutics, Inc., priority 2016, dated 2020).

This test deals with T1, small-conductance Ca2+-activated K+ channels (SK channels, subtype 2) (Homo sapiens, UniProt Q9H2S1).
T1 construct: expressed in transfected cells; host or cells: HEK293
As to the kind of experiment: whole-cell patch-clamp of ionic current through SK2 channels in HEK293 cells (SC100). Type of test: cell-based. Particulars: whole-cell patch-clamp, HEK293 cells expressing SK2 channels; concentration that increases the basal current by 100%. The procedure, abridged: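 SC100, the concentration doubling basal current (a 100% increase), was taken from SK2 currents recorded by whole-cell patch-clamp in SK2-expressing HEK293 cells.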
(Patch clamp records ionic current or voltage across a cell membrane.)
For the compound `Cc1cc(C)n(-c2nc(NC3CCC(F)(F)CC3)cc(C(C)N3CCOCC3)n2)n1` (stereo not drawn) [IN10987-055-P1, N-(4,4-difluorocyclohexyl)-2-(3,5-dimethyl-1H-pyrazol-1-yl)-6-(1-morpholinoethyl)pyrimidin-4-amine], the “SC100 (μM)” value is “+ (+ means >1 uM)”.
With `Cc1csc(-c2nc(NC3CCC(F)(F)CC3)cc(N3CC4CC3CN4C)n2)n1` (stereo not drawn) [IN10987-056-P1] the entry was “++ (++ means 200 nM-1000 nM)”.
Then `Cc1cc(C)n(-c2nc(OC3CCC(F)(F)CC3)cc(N3CCOCC3)n2)n1` [IN10991-021-P1, 4-(6-((4,4-difluorocyclohexyl)oxy)-2-(3,5-dimethyl-1H-pyrazol-1-yl)pyrimidin-4-yl)morpholine], with “+ (+ means >1 uM)”.
Then `Cc1cc(C)n(-c2cc(N3CCOCC3)cc(NC3CCC(F)(F)CC3)n2)n1` [IN10991-044-P1, N-(4,4-difluorocyclohexyl)-6-(3,5-dimethyl-1H-pyrazol-1-yl)-4-morpholinopyridin-2-amine], with “++ (++ means 200 nM-1000 nM)”; and `Cc1cc(C)n(-c2cc(NC3CCC(F)(F)CC3)cc(N3CCOCC3)n2)n1` [IN10991-065-P1, N-(4,4-difluorocyclohexyl)-2-(3,5-dimethyl-1H-pyrazol-1-yl)-6-morpholinopyridin-4-amine], with “+ (+ means >1 uM)”.
As to `Cc1cc(C)n(-c2cc(NC3CCC(F)(F)CC3)nc(N3CCOCC3)c2)n1` [IN10991-067-P1, N-(4,4-difluorocyclohexyl)-4-(3,5-dimethyl-1H-pyrazol-1-yl)-6-morpholinopyridin-2-amine], the “SC100 (μM)” value is on record as “+ (+ means >1 uM)”.
Then `Cc1ccn(-c2cc(CN3CCOC3=O)cc(NC3CCC(F)(F)CC3)n2)n1` [IN10991-091-P1], with “++ (++ means 200 nM-1000 nM)”; and `Fc1cnn(-c2nc(NC3CCC(F)(F)CC3)cc(N3CCOCC3)n2)c1` [IN11030-013-P1, N-(4,4-difluorocyclohexyl)-2-(4-fluoro-1H-pyrazol-1-yl)-6-morpholinopyrimidin-4-amine], with “+ (+ means >1 uM)”; and `FC1(F)CCC(Nc2cc(N3CCOCC3)nc(-c3ccc[nH]3)n2)CC1` [IN11030-023-P1, N-(4,4-difluorocyclohexyl)-6-morpholino-2-(1H-pyrrol-2-yl)pyrimidin-4-amine], with “+ (+ means >1 uM)”.
Regarding `Cc1csc(-c2nc(NC3CCC(F)(F)CC3)cc(N3CC(F)(F)OC(F)(F)C3)n2)n1` [IN11030-032-P1], the “SC100 (μM)” value is “+++ (+++ means <200 nM)”.
Then `Cc1cc(C)n(-c2nc(NC3CCC(F)(F)CC3)cc(N3CC(F)(F)OC(F)(F)C3)n2)n1` [IN11030-035-P1], with “++ (++ means 200 nM-1000 nM)”.
Then `Cc1ccn(-c2nc(NC3CCC(F)(F)CC3)cc(N3CC(F)(F)OC(F)(F)C3)n2)n1` [IN11030-044-P1], with “++ (++ means 200 nM-1000 nM)”.
For the compound `CC(=O)c1cc(NC2CCC(F)(F)CC2)nc(-c2nc(C)cs2)n1` [IN11030-054-P1, 1-(6-((4,4-difluorocyclohexyl)amino)-2-(4-methylthiazol-2-yl)pyrimidin-4-yl) ethan-1-one], the “SC100 (μM)” value is reported as “+ (+ means >1 uM)”.
For `COc1cccc2c(NC3CCC(F)(F)CC3)nc(-c3nc(C)cs3)nc12` [IN11030-081-P1, N-(4,4-difluorocyclohexyl)-8-methoxy-2-(4-methylthiazol-2-yl) quinazolin-4-amine], the “SC100 (μM)” value is recorded as “++ (++ means 200 nM-1000 nM)”.
As for `Cc1csc(-c2nc(NC3CCC(F)(F)CC3)cc(C(C)(C)O)n2)n1` [IN11030-083-P1, 2-(6-((4,4-difluorocyclohexyl)amino)-2-(4-methylthiazol-2-yl)pyrimidin-4-yl) propan-2-ol], the “SC100 (μM)” value is recorded as “++ (++ means 200 nM-1000 nM)”.
Then `Cc1ccn(-c2nc(NC3CCC(F)(F)CC3)cc(OCCC#N)n2)n1` [IN11030-095-P1], with “+ (+ means >1 uM)”; and `Cc1ccn(-c2cc(COC(=O)N(C)C)cc(NC3CCC(F)(F)CC3)n2)n1` [IN11039-006-P1], with “+++ (+++ means <200 nM)”.
With `COC(=O)NCCOc1cc(NC2CCC(F)(F)CC2)nc(-c2nc(C)cs2)n1` [IN11039-009-P1], the “SC100 (μM)” value is listed as “++ (++ means 200 nM-1000 nM)”.
Then `COCCN(C)Cc1cc(NC2CCC(F)(F)CC2)nc(-n2ccc(C)n2)c1` [IN11039-017-P1], with “++ (++ means 200 nM-1000 nM)”.
`Cc1ccn(-c2cc(COC3CCCNC3)cc(NC3CCC(F)(F)CC3)n2)n1` (stereo not drawn) [IN11039-019-P1, N-(4,4-difluorocyclohexyl)-6-(3-methyl-1H-pyrazol-1-yl)-4-((piperidin-3-yloxy)methyl)pyridin-2-amine]: the “SC100 (μM)” value was “+++ (+++ means <200 nM)”.
Then `Cc1ccn(-c2cc3ccccc3c(NC3CCC(F)(F)CC3)n2)n1` [IN11039-023-P1, N-(4,4-difluorocyclohexyl)-3-(3-methyl-1H-pyrazol-1-yl)isoquinolin-1-amine], with “+ (+ means >1 uM)”.
With `CNCc1cc(NC2CCC(F)(F)CC2)nc(-n2ccc(C)n2)c1` [IN11039-026-P1] the entry was “++ (++ means 200 nM-1000 nM)”; with `Cc1ccn(-c2cc3c(c(NC4CCC(F)(F)CC4)n2)CCCC3)n1` [IN11039-036-P1, N-(4,4-difluorocyclohexyl)-3-(3-methyl-1H-pyrazol-1-yl)-5,6,7,8-tetrahydro isoquinolin-1-amine], “+ (+ means >1 uM)”; with `COc1nc(-c2nc(C)cs2)nc(NC2CCC(F)(F)CC2)c1F` [IN11039-058-P1, N-(4,4-difluorocyclohexyl)-5-fluoro-6-methoxy-2-(4-methylthiazol-2-yl)pyrimidin-4-amine], “++ (++ means 200 nM-1000 nM)”.
Turning to `Cc1ccn(-c2cc(COc3ncccc3C(C)O)cc(NC3CCC(F)(F)CC3)n2)n1` (stereo not drawn) [IN11039-066-P1], the “SC100 (μM)” value was “+++ (+++ means <200 nM)”.
With `Cc1ccn(-c2cc(COc3ncccc3C(C)(C)O)cc(NC3CCC(F)(F)CC3)n2)n1` [IN11039-069-P1] the entry was “+++ (+++ means <200 nM)”.
With `Cc1csc(-c2nc(NC3CCC(F)(F)CC3)c(O)c(=O)[nH]2)n1` [IN11039-094-P1, 6-((4,4-difluorocyclohexyl)amino)-2-(4-methylthiazol-2-yl) pyrimidine-4,5-diol] the entry was “+ (+ means >1 uM)”.
With `COc1cc(NC2CCC(F)(F)CC2)nc(-n2ccc(C)n2)n1` [IN11053-005-P1] the entry was “+ (+ means >1 uM)”; with `COCc1cc(NC2CCC(F)(F)CC2)nc(-n2ccc(C)n2)n1` [IN11053-007-P1, N-(4,4-difluorocyclohexyl)-6-(methoxymethyl)-2-(3-methyl-1H-pyrazol-1-yl)pyrimidin-4-amine], “+ (+ means >1 uM)”; with `Cc1ccn(-c2nc(COc3ccc(C#N)cn3)cc(NC3CCC(F)(F)CC3)n2)n1` [IN11053-013-P1], “++ (++ means 200 nM-1000 nM)”.
Regarding `Cc1ccn(-c2nc(NC3CCC(F)(F)CC3)cc(OC(C)C)n2)n1` [IN11053-021-P1], the “SC100 (μM)” value is reported as “+ (+ means >1 uM)”.
With `Cc1ccn(-c2nc(NC3CCC(F)(F)CC3)cc(OCc3ncco3)n2)n1` [IN11053-022-P1] the entry was “+ (+ means >1 uM)”.
Consider `Cc1ccn(-c2nc(NC3CCC(F)(F)CC3)cc(OCc3cocn3)n2)n1` [IN11053-024-P1], for which the “SC100 (μM)” value is “+ (+ means >1 uM)”.
Then `COC(=O)NCc1cc(NC2CCC(F)(F)CC2)nc(-n2ccc(C)n2)n1` [IN11053-033-P1, methyl ((6-((4,4-difluorocyclohexyl)amino)-2-(3-methyl-1H-pyrazol-1-yl)pyrimidin-4-yl)methyl) carbamate], with “+ (+ means >1 uM)”; and `Cc1ccn(-c2nc(COc3ccc(C(N)=O)nn3)cc(NC3CCC(F)(F)CC3)n2)n1` [IN11053-046-P1], with “+++ (+++ means <200 nM)”.
Regarding `C=Cc1cc(NC2CCC(F)(F)CC2)nc(-n2ccc(C)n2)n1` [IN11053-052-P1], the “SC100 (μM)” value was “++ (++ means 200 nM-1000 nM)”.
Then `CC(=O)c1cc(NC2CCC(F)(F)CC2)nc(-n2ccc(C(F)(F)F)n2)n1` [IN11053-059-P1, 1-(6-((4,4-difluorocyclohexyl)amino)-2-(3-(trifluoromethyl)-1H-pyrazol-1-yl)pyrimidin-4-yl)ethan-1-one], with “+ (+ means >1 uM)”; and `OCc1cc(NC2CCC(F)(F)CC2)nc(-n2ccc(C(F)(F)F)n2)n1` [IN11053-060-P1, (6-((4,4-difluorocyclohexyl)amino)-2-(3-(trifluoromethyl)-1H-pyrazol-1-yl)pyrimidin-4-yl) methanol], with “++ (++ means 200 nM-1000 nM)”; and `CC(O)c1cc(NC2CCC(F)(F)CC2)nc(-n2ccc(C(F)(F)F)n2)n1` (stereo not drawn) [IN11053-062-P1, 1-(6-((4,4-difluorocyclohexyl)amino)-2-(3-(trifluoromethyl)-1H-pyrazol-1-yl)pyrimidin-4-yl)ethan-1-ol], with “+ (+ means >1 uM)”.
With `COCc1cc(NC2CCC(F)(F)CC2)nc(-n2ccc(C(F)(F)F)n2)n1` [IN11053-071-P1, N-(4,4-difluorocyclohexyl)-6-(methoxymethyl)-2-(3-(trifluoromethyl)-1H-pyrazol-1-yl)pyrimidin-4-amine] the entry was “+ (+ means >1 uM)”; with `COC(C)c1cc(N(C)C2CCC(F)(F)CC2)nc(-n2ccc(C(F)(F)F)n2)n1` (stereo not drawn) [IN11053-073-P1, N-(4,4-difluorocyclohexyl)-6-(1-methoxyethyl)-N-methyl-2-(3-(trifluoromethyl)-1H-pyrazol-1-yl)pyrimidin-4-amine], “+ (+ means >1 uM)”; with `COC(C)c1cc(NC2CCC(F)(F)CC2)nc(-n2ccc(C(F)(F)F)n2)n1` (stereo not drawn) [IN11053-076-P1, N-(4,4-difluorocyclohexyl)-6-(1-methoxyethyl)-2-(3-(trifluoromethyl)-1H-pyrazol-1-yl)pyrimidin-4-amine], “+ (+ means >1 uM)”.
